Assay results published in the supplement of paper PMC6045584.
± gives the standard deviation of the averaged measurements.

Experiments:
[1] = compound: O=c1[nH]cc(F)c(=O)[nH]1 [FLUOROURACIL]; assay: surviving fraction relative to DMSO-only wells; higher = less growth inhibition; details: exposure time: 5 days
Outline: (§1)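 Log-phase tumour cell lines, 250–500 cells per well in 384-well plates, received inhibitors at 0.5, 1, 5, 10, 50, 100, 500 and 1000 nM continuously for five days, starting 24 hours after seeding. Viability was quantified with CellTiter-Glo luminescence and normalised to the median of DMSO-only wells to give surviving fraction. Three screens were run per line, and a line stayed in only with replicate Pearson r >0.7 and median Z' >0.3.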

[2] = compound: CN(C)CC[C@H](CSc1ccccc1)Nc1ccc(S(=O)(=O)NC(=O)c2ccc(N3CCN(Cc4ccccc4-c4ccc(Cl)cc4)CC3)cc2)cc1[N+](=O)[O-] [ABT-737]; assay: as above; details: exposure time: 5 days
Outline: as §1

Row | Test System | surviving fraction ([1]; 0.5 nM) | surviving fraction ([1]; 1 nM) | surviving fraction ([1]; 5 nM) | surviving fraction ([1]; 10 nM) | surviving fraction ([1]; 50 nM) | surviving fraction ([1]; 100 nM) | surviving fraction ([1]; 500 nM) | surviving fraction ([1]; 1000 nM) | surviving fraction ([2]; 0.5 nM) | surviving fraction ([2]; 1 nM) | surviving fraction ([2]; 5 nM) | surviving fraction ([2]; 10 nM) | surviving fraction ([2]; 50 nM) | surviving fraction ([2]; 100 nM) | surviving fraction ([2]; 500 nM) | surviving fraction ([2]; 1000 nM)
1 | CAL72 BONE | 1.07 ± 0.014 | 1.056 ± 0.0093 | 1.03 ± 0.051 | 1.05 ± 0.039 | 1.02 ± 0.037 | 0.944 ± 0.093 | 0.955 ± 0.16 | 0.751 ± 0.16 | 1.04 ± 0.13 | 1.06 ± 0.12 | 1.06 ± 0.1 | 1.05 ± 0.12 | 1.11 ± 0.14 | 1.06 ± 0.13 | 1.08 ± 0.12 | 1.06 ± 0.17
2 | CAL120 BREAST | 0.986 ± 0.039 | 0.991 ± 0.041 | 0.989 ± 0.034 | 0.979 ± 0.069 | 0.967 ± 0.015 | 0.938 ± 0.032 | 0.983 ± 0.043 | 0.803 ± 0.024 | 0.984 ± 0.03 | 0.9688 ± 0.0083 | 0.981 ± 0.051 | 0.984 ± 0.061 | 0.997 ± 0.018 | 0.998 ± 0.038 | 0.992 ± 0.012 | 0.773 ± 0.11
3 | CASKI CERVIX | 0.957 ± 0.037 | 0.928 ± 0.045 | 0.935 ± 0.04 | 0.941 ± 0.068 | 0.92 ± 0.046 | 0.916 ± 0.066 | 0.801 ± 0.045 | 0.555 ± 0.033 | 0.912 ± 0.075 | 0.896 ± 0.038 | 0.9707 ± 0.0083 | 0.937 ± 0.021 | 1.08 ± 0.015 | 1.06 ± 0.094 | 0.931 ± 0.092 | 0.715 ± 0.026
4 | CHLA90 AUTONOMIC GANGLIA | 0.951 ± 0.021 | 0.946 ± 0.043 | 0.939 ± 0.059 | 1 ± 0.13 | 1.07 ± 0.054 | 1.04 ± 0.084 | 0.91 ± 0.12 | 0.886 ± 0.09 | 0.98 ± 0.054 | 0.955 ± 0.068 | 0.961 ± 0.043 | 0.99 ± 0.091 | 1.02 ± 0.064 | 1.01 ± 0.12 | 0.979 ± 0.093 | 0.997 ± 0.13
5 | CME SYNOVIAL | 1.35 ± 0.12 | 1.26 ± 0.024 | 1.27 ± 0.032 | 1.21 ± 0.036 | 1.02 ± 0.1 | 1.03 ± 0.1 | 0.931 ± 0.15 | 0.554 ± 0.017 | 1.33 ± 0.17 | 1.37 ± 0.049 | 1.42 ± 0.099 | 1.37 ± 0.11 | 1.27 ± 0.23 | 1.42 ± 0.14 | 1.21 ± 0.099 | 1.23 ± 0.07
6 | COLO320DM LARGE INTESTINE | 1.07 ± 0.14 | 1.06 ± 0.051 | 1.09 ± 0.019 | 1.05 ± 0.1 | 0.988 ± 0.083 | 0.863 ± 0.053 | 0.492 ± 0.035 | 0.347 ± 0.023 | 1.09 ± 0.057 | 1.13 ± 0.085 | 1.04 ± 0.14 | 1.03 ± 0.12 | 1.19 ± 0.083 | 1.12 ± 0.03 | 1.21 ± 0.13 | 1.13 ± 0.055
7 | DU4475 BREAST | 0.972 ± 0.062 | 1.06 ± 0.068 | 0.934 ± 0.12 | 1.13 ± 0.12 | 1.01 ± 0.16 | 0.987 ± 0.27 | 1.06 ± 0.081 | 0.939 ± 0.1 | 0.935 ± 0.13 | 0.973 ± 0.042 | 0.943 ± 0.13 | 0.865 ± 0.1 | 0.797 ± 0.13 | 0.715 ± 0.012 | 0.373 ± 0.067 | 0.203 ± 0.047
8 | H23 LUNG | 1.06 ± 0.062 | 1.02 ± 0.034 | 1.05 ± 0.026 | 1.04 ± 0.036 | 1.1 ± 0.061 | 1.02 ± 0.046 | 1.04 ± 0.044 | 0.659 ± 0.029 | 1.01 ± 0.043 | 1.06 ± 0.077 | 1.05 ± 0.066 | 1.06 ± 0.017 | 1.07 ± 0.067 | 1.1 ± 0.087 | 1.08 ± 0.065 | 1.048 ± 0.004
9 | HCC78 LUNG | 1.01 ± 0.16 | 0.913 ± 0.1 | 1.19 ± 0.12 | 0.986 ± 0.062 | 1.28 ± 0.093 | 1.1 ± 0.15 | 0.973 ± 0.1 | 0.432 ± 0.036 | 0.9693 ± 0.0035 | 0.955 ± 0.076 | 0.969 ± 0.1 | 1.08 ± 0.15 | 1.04 ± 0.062 | 0.92 ± 0.2 | 0.967 ± 0.19 | 0.939 ± 0.2
10 | HCC202 BREAST | 1.03 ± 0.41 | 1.22 ± 0.26 | 1.02 ± 0.15 | 1.13 ± 0.24 | 0.966 ± 0.12 | 1.15 ± 0.52 | 0.895 ± 0.3 | 0.866 ± 0.29 | 1.36 ± 0.084 | 1.17 ± 0.2 | 1.07 ± 0.069 | 1.43 ± 0.17 | 1.1 ± 0.16 | 1.31 ± 0.17 | 1.15 ± 0.5 | 0.965 ± 0.018
